According to PubChem BioAssay (NCI):
Several values for one entry are separate records, joined by “and”; a condition that tells them apart may be missing. Equal entries are not always repeated.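 Interpolation was linear, between the two tested concentrations surrounding the appropriate level; five concentrations were tested over 48 hours in 96-well plates. GI50 = concentration required for 50% inhibition of growth. TGI marks complete inhibition of growth.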

Assays:
Test in all cases: DTP human tumour cell line panel, 48 h
786-0 renal = tested on: 786-0 renal
A498 renal = tested on: A498 renal
A549 NSCLC = tested on: A549 NSCLC
ACHN renal = tested on: ACHN renal
BT-549 breast = tested on: BT-549 breast
CAKI-1 renal = tested on: CAKI-1 renal
CCRF-CEM leukemia = tested on: CCRF-CEM leukemia
COLO 205 colon = tested on: COLO 205 colon
DU-145 prostate = tested on: DU-145 prostate
EKVX NSCLC = tested on: EKVX NSCLC
HCC-2998 colon = tested on: HCC-2998 colon
HCT-116 colon = tested on: HCT-116 colon
HCT-15 colon = tested on: HCT-15 colon
HL-60(TB) leukemia = tested on: HL-60(TB) leukemia
HOP-62 NSCLC = tested on: HOP-62 NSCLC
HOP-92 NSCLC = tested on: HOP-92 NSCLC
HS 578T breast = tested on: HS 578T breast
HT29 colon = tested on: HT29 colon
IGROV1 ovarian = tested on: IGROV1 ovarian
K-562 leukemia = tested on: K-562 leukemia
KM12 colon = tested on: KM12 colon
LOX IMVI melanoma = tested on: LOX IMVI melanoma
M14 melanoma = tested on: M14 melanoma
MALME-3M melanoma = tested on: MALME-3M melanoma
MCF7 breast = tested on: MCF7 breast
MDA-MB-231 breast = tested on: MDA-MB-231 breast
MDA-MB-435 = tested on: MDA-MB-435
MDA-N = tested on: MDA-N
MOLT-4 leukemia = tested on: MOLT-4 leukemia
NCI-H226 lung = tested on: NCI-H226 lung
NCI-H23 lung = tested on: NCI-H23 lung
NCI-H460 lung = tested on: NCI-H460 lung
NCI-H522 lung = tested on: NCI-H522 lung
NCI/ADR-RES ovarian = tested on: NCI/ADR-RES ovarian
OVCAR-3 ovarian = tested on: OVCAR-3 ovarian
OVCAR-4 ovarian = tested on: OVCAR-4 ovarian
OVCAR-5 ovarian = tested on: OVCAR-5 ovarian
OVCAR-8 ovarian = tested on: OVCAR-8 ovarian
PC-3 prostate = tested on: PC-3 prostate
RPMI-8226 leukemia = tested on: RPMI-8226 leukemia
RXF 393 renal = tested on: RXF 393 renal
SF-268 CNS = tested on: SF-268 CNS
SF-295 CNS = tested on: SF-295 CNS
SF-539 CNS = tested on: SF-539 CNS
SK-MEL-2 melanoma = tested on: SK-MEL-2 melanoma
SK-MEL-28 melanoma = tested on: SK-MEL-28 melanoma
SK-MEL-5 melanoma = tested on: SK-MEL-5 melanoma
SK-OV-3 ovarian = tested on: SK-OV-3 ovarian
SN12C renal = tested on: SN12C renal
SNB-19 CNS = tested on: SNB-19 CNS
SNB-75 CNS = tested on: SNB-75 CNS
SR leukemia = tested on: SR leukemia
SW-620 colon = tested on: SW-620 colon
T-47D breast = tested on: T-47D breast
TK-10 renal = tested on: TK-10 renal
U251 CNS = tested on: U251 CNS
UACC-257 melanoma = tested on: UACC-257 melanoma
UACC-62 melanoma = tested on: UACC-62 melanoma
UO-31 renal = tested on: UO-31 renal

## Oc1ccc(/C=N/Nc2nnc(N/N=C/c3ccc(O)cc3O)c3ccccc23)c(O)c1
786-0 renal
  GI50: 593 nM
  TGI: 2460 nM
A498 renal
  GI50: 1330 nM
  TGI: 3510 nM
A549 NSCLC
  GI50: 670 nM
  TGI: > 28700 nM
ACHN renal
  GI50: 358 nM
  TGI: 422 nM and 3940 nM
BT-549 breast
  GI50: 399 nM
  TGI: 581 nM and 1940 nM
CAKI-1 renal
  GI50: 334 nM
  TGI: 671 nM
CCRF-CEM leukemia
  GI50: 280 nM
  TGI: 783 nM and 5490 nM
COLO 205 colon
  GI50: 897 nM
  TGI: 2960 nM
DU-145 prostate
  GI50: 432 nM
  TGI: 831 nM and 5990 nM
EKVX NSCLC
  GI50: 349 nM
HCC-2998 colon
  GI50: 446 nM
  TGI: 2420 nM
HCT-116 colon
  GI50: 348 nM
  TGI: 2160 nM
HCT-15 colon
  GI50: 332 nM
HL-60(TB) leukemia
  GI50: 376 nM
  TGI: 598 nM and 4810 nM
HOP-62 NSCLC
  GI50: 509 nM
  TGI: 793 nM and 2020 nM
HOP-92 NSCLC
  GI50: 496 nM
  TGI: 2650 nM
HS 578T breast
  GI50: 500 nM
  TGI: 954 nM
HT29 colon
  GI50: 1760 nM
  TGI: 7200 nM
IGROV1 ovarian
  GI50: 493 nM
  TGI: 3240 nM
K-562 leukemia
  GI50: 346 nM
KM12 colon
  GI50: 375 nM
  TGI: 800 nM and 1540 nM
LOX IMVI melanoma
  GI50: 277 nM
  TGI: 871 nM and 1500 nM
M14 melanoma
  GI50: 358 nM
  TGI: 1530 nM
MALME-3M melanoma
  GI50: 633 nM
  TGI: 4280 nM
MCF7 breast
  GI50: 576 nM
  TGI: 848 nM and 2290 nM
MDA-MB-231 breast
  GI50: 1350 nM
  TGI: > 46200 nM
MDA-MB-435
  GI50: 587 nM
  TGI: 3670 nM
MDA-N
  TGI: 930 nM
MOLT-4 leukemia
  GI50: 432 nM
NCI-H226 lung
  GI50: 1920 nM
  TGI: 6980 nM
NCI-H23 lung
  GI50: 707 nM
  TGI: 2770 nM
NCI-H460 lung
  GI50: 414 nM
  TGI: 1760 nM
NCI-H522 lung
  GI50: 253 nM
  TGI: 799 nM
NCI/ADR-RES ovarian
  TGI: 12500 nM
OVCAR-3 ovarian
  GI50: 385 nM
  TGI: 489 nM and 1900 nM
OVCAR-4 ovarian
  GI50: 449 nM
  TGI: 5310 nM
OVCAR-5 ovarian
  GI50: 1360 nM
  TGI: 15800 nM
OVCAR-8 ovarian
  GI50: 494 nM
PC-3 prostate
  TGI: 8820 nM
RPMI-8226 leukemia
  GI50: 345 nM
  TGI: 533 nM and 1770 nM
RXF 393 renal
  GI50: 519 nM
  TGI: 2400 nM
SF-268 CNS
  GI50: 353 nM
SF-295 CNS
  GI50: 173 nM
  TGI: 813 nM and 597 nM
SF-539 CNS
  TGI: 714 nM and 755 nM
SK-MEL-2 melanoma
  GI50: 674 nM
  TGI: 623 nM and 2570 nM
SK-MEL-28 melanoma
  GI50: 552 nM
  TGI: 5260 nM
SK-MEL-5 melanoma
  GI50: 413 nM
  TGI: 744 nM and 3190 nM
SK-OV-3 ovarian
  GI50: 552 nM
  TGI: 4500 nM
SN12C renal
  GI50: 507 nM
  TGI: 6720 nM
SNB-19 CNS
  TGI: 7190 nM
SNB-75 CNS
  GI50: 361 nM
  TGI: 1440 nM
SR leukemia
  GI50: 205 nM
  TGI: 592 nM and 719 nM
SW-620 colon
  TGI: 7710 nM
T-47D breast
  GI50: 384 nM
  TGI: 633 nM and 1640 nM
TK-10 renal
  GI50: 526 nM
  TGI: 9180 nM
U251 CNS
  GI50: 312 nM
  TGI: 976 nM and 5340 nM
UACC-257 melanoma
  GI50: 1840 nM
  TGI: 7730 nM
UACC-62 melanoma
  GI50: 318 nM
  TGI: 602 nM and 1580 nM
UO-31 renal
  GI50: 282 nM
  TGI: 3920 nM
